# Test results taken from ChEMBL document CHEMBL5154932, “Discovery of 1,6-Naphthyridin-2(1H)-one Derivatives as Novel, Potent, and Selective FGFR4 Inhibitors for the Treatment of Hepatocellular Carcinoma” (J Med Chem, 2022).
# Columns and labels:
# [1] = rat, in vivo, iv, 1 mg/kg
# [2] = rat, in vivo, iv, 1 mg/kg; remark: listed apart in the source
# [3] = rat, in vivo, iv, 1 mg/kg; remark: listed apart in the source
# [4] = rat, in vivo, iv, 1 mg/kg; remark: listed apart in the source
# [5] = rat, in vivo, iv, 1 mg/kg; remark: listed apart in the source
# [6] = rat, in vivo, iv, 1 mg/kg; remark: listed apart in the source
# in vivo [7] = conditions: Sprague-Dawley, rat, po, 10 mg/kg
# in vivo [8] = conditions: Sprague-Dawley, rat, po, 10 mg/kg; remark: listed apart in the source
# in vivo [9] = conditions: Sprague-Dawley, rat, po, 10 mg/kg; remark: listed apart in the source
# in vivo [10] = conditions: Sprague-Dawley, rat, po, 10 mg/kg; remark: listed apart in the source
# in vivo [11] = conditions: Sprague-Dawley, rat, po, 10 mg/kg; remark: listed apart in the source
# in vivo [12] = conditions: Sprague-Dawley, rat, po, 10 mg/kg; remark: listed apart in the source
# in vitro [13] = conditions: mouse, liver microsomes
# in vitro [14] = conditions: rat, liver microsomes
# in vitro [15] = conditions: beagle, dog, liver microsomes
# in vitro [16] = conditions: cynomolgus monkey, liver microsomes
# in vitro [17] = conditions: human, liver microsomes
# in vitro [18] = conditions: mouse, plasma
# in vitro [19] = conditions: rat, plasma
# in vitro [20] = conditions: beagle, dog, plasma
# in vitro [21] = conditions: cynomolgus monkey, plasma
# in vitro [22] = conditions: human, plasma
# [23] = rat, in vivo, po, 10 mg/kg
# [24] = rat, in vivo, po, 10 mg/kg; remark: listed apart in the source
# [25] = rat, in vivo, po, 10 mg/kg; remark: listed apart in the source
# [26] = rat, in vivo, po, 10 mg/kg; remark: listed apart in the source
SMILES,t1/2 [1] [min],Cmax [2] [ng/mL],AUCt [3] [ng·h/mL],MRT(t) [4] [h],CL [5] [mL/min/kg],Vd [6] [L/kg],MRT last (in vivo [11]) [h],bioavailability (in vivo [12]) [%],half-life (in vitro [13]) [h],half-life (in vitro [17]) [h],half-life (in vitro [18]) [h],half-life (in vitro [19]) [h],half-life (in vitro [20]) [h],half-life (in vitro [21]) [h],half-life (in vitro [22]) [h],further results
CC#CC(=O)Nc1cc(-c2cc3c(cn2)cc(-c2c(Cl)c(OC)cc(OC)c2Cl)c(=O)n3CC)c(OC)cc1N1C[C@H]2C[C@@H]1CO2,2,1836.2,2609.6,1.8,6.7,1.1,2.4,55.4,0.735,0.668,3.33,> 4.82,> 4.82,> 4.82,4.77,AUC(0-t) (in vivo [7]): 14400 ng·h/mL; half-life (in vivo [8]): 2 min; Tmax (in vivo [9]): 1.4 h; Cmax (in vivo [10]): 3650 ng/mL; half-life (in vitro [14]): 1.22 h; half-life (in vitro [15]): 0.455 h; half-life (in vitro [16]): 0.222 h
C=CC(=O)N[C@H]1CCOC[C@H]1Nc1ncc2cc(-c3c(Cl)c(OC)cc(OC)c3Cl)ccc2n1 [FISOGATINIB],1,1161,1023.1,1,17,1.4,1.8,79.7,0.333,0.42,> 4.82,> 4.82,> 4.82,> 4.82,> 4.82,AUCt [23]: 8155.2 ng·h/mL; t1/2 [24]: 1.2 min; Tmax [25]: 0.5 h; Cmax [26]: 2570.9 ng/mL
